# Earlier results in patent publication US10086029B2, “Fermented plant extracts, methods of production and uses” (KEFIPLANT INC., priority 2006, dated 2018).
# System: xanthine oxidase
# Settings: glycoside versus aglycone, literature study
smiles,measurement,value
C[C@@H]1O[C@@H](OC[C@H]2O[C@@H](Oc3c(-c4ccc(O)c(O)c4)oc4cc(O)cc(O)c4c3=O)[C@H](O)[C@@H](O)[C@@H]2O)[C@H](O)[C@H](O)[C@H]1O [rutine],Activity as inhibitor of xanthine oxidase relative to quercetine,nearly ten times less active than quercetine
